Experimental data from publication PMC5430874 (Scientific Reports, 2017).
Changes are numbered by the printed parent chain.

What was measured:
GPR139 H264A7x31 = target: T1, GPR139 H264A7x31 (Homo sapiens, UniProt Q6DWJ6, H264A); assay: Fluo-4 Ca2+-assay, GPR139 mutant H264A; assay type: cell-based
T1 construct: mGluR5 signal peptide (N); expressed in transfected cells; host or cells: HEK293
T1 sequence (Q6DWJ6 2-353 H264A limits assumed): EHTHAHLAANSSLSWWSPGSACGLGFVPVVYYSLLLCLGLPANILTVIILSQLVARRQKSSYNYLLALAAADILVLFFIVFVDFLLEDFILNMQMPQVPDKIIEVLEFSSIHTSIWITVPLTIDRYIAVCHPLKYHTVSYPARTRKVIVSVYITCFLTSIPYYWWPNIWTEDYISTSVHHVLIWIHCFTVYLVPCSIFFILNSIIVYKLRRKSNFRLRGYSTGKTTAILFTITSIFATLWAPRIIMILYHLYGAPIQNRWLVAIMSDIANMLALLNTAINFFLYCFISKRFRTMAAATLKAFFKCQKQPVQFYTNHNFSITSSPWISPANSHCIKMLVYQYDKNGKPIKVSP
Excerpt: (§1) To study the influence of specific amino acids in the predicted binding pocket on receptor function, the desired mutations were introduced into an N-terminally c-myc-tagged wild type human GPR139 (NM_001002911.3) in the pEGFP-N1 vector (BD Biosciences)[32], [33]. As previously described, these plasmids carry the signal peptide of mGluR5 to promote cell surface expression followed by a c-myc epitope to enable detection of total and surface expression by ELISA, followed by an engineered MluI and NotI site for easy insertion of the receptor of interest. Furthermore, the start-codon in the GPR139 sequence was deleted to ensure c-myc-tagging. […]
(§2) The Ca^2+ measurements were preformed using the Fluo-4 NW Calcium Assay Kit (Invitrogen, Molecular Probes, F36206) as previously described. […] Intracellular calcium changes were recorded as indicated on either a NOVOstar (BMG Labtech) at 37 °C with an excitation filter of 485 nm and an emission filters 520 nm or a FlexStation 3 Benchtop Multi-Mode Microplate Reader (Molecular Devices) at 37 °C with an excitation wavelength of 485 nm and emission of 525 nm.
(§3) All pharmacological data have been analyzed by using Prism 6.0 (GraphPad Software Inc., San Diego). […] Changes in potency (pEC50) and span of myc-GPR139(WT) in comparison to untagged GPR139(WT) was statistically analyzed with a paired t-test and significance was accepted at p < 0.05. […]

GPR139 H251A6x58 = target: T2, GPR139 H251A6x58 (Homo sapiens, UniProt Q6DWJ6, H251A); assay: Fluo-4 Ca2+-assay, GPR139 mutant H251A; assay type: cell-based
T2 construct: mGluR5 signal peptide (N); expressed in transfected cells; host or cells: HEK293
T2 sequence (Q6DWJ6 2-353 H251A limits assumed): T1 sequence (Q6DWJ6 2-353 H264A limits assumed) with H250A, A263H
Excerpt: as §1, §2, §3

EC50 (GPR139 H264A7x31; H264A mutant): 251 nM
Emax (GPR139 H264A7x31; H264A, normalized to buffer (0%) and 8 µM 1a (100%)): 148 ± 15%
EC50 (GPR139 H251A6x58; H251A mutant): 813 nM
Emax (GPR139 H251A6x58; H251A, normalized to buffer (0%) and 8 µM 1a (100%)): 84 ± 11%
Structure (SMILES): COc1cc(OC)cc(C(=O)NNC(=O)Nc2cccc3ccccc23)c1 [Compound 1a]
